Where two headings read alike, the source gives them in different places.
Legend:
[1] = Cytotoxicity of compounds on HEK293T cells (MTT); assay type: cell-based; settings: human
in vitro = settings: African green monkey
[2] = system: SARS-CoV-2 Wuhan lineage B, hCoV-19/Australia/VIC01/2020 (EPI_ISL_406844); experiment: microbe, parasite or virus in culture; assay type: cell-based; settings: for IC50: Severe acute respiratory syndrome coronavirus 2, Vero C1008, 96 h
[3] = system: lentiviral particles exhibiting S protein of SARS-CoV-2; experiment: microbe, parasite or virus in culture; assay type: cell-based; settings: for inhibition at 25 µM: Severe acute respiratory syndrome coronavirus 2, 48 h, read-out: % Neutralization at 25 µM
[4] = system: main viral protease 3CLPro; settings: cited from earlier work; for active against 3CLPro at a dose of: range for the four flavonoids
[5] = system: SARS-CoV-2 Omicron lineage B.1.1.529, hCoV-19/Russia/Moscow171619-031221/2021; experiment: microbe, parasite or virus in culture; assay type: cell-based; settings: Severe acute respiratory syndrome coronavirus 2, Vero C1008, 96 h
[6] = biological target: main protease (3CLpro) of SARS-CoV-2 (Severe acute respiratory syndrome coronavirus 2, UniProt P0DTD1); experiment: biochemical
[7] = system: SARS-CoV-2 Delta lineage B.1.617.2, hCoV-19/Russia/PSK-2804/2021; experiment: microbe, parasite or virus in culture; assay type: cell-based; settings: for IC50: Severe acute respiratory syndrome coronavirus 2, Vero C1008, 96 h
[8] = HEK293T cells, 72 h, MTT, read-out: CC50
[9] = Severe acute respiratory syndrome coronavirus 2

CC(=O)C1=C(O)C=C2Oc3c(C(=O)CSC(C)C(=O)O)c(O)c(C)c(O)c3[C@@]2(C)C1=O (mixture of isomers) [Compound 5b, (2S)-2-({2-[(1R)-12-acetyl-3,5,11-trihydroxy-1,4-dimethyl-13-oxo-8-oxatricyclo[7.4.0.0^2,7]trideca-2(7),3,5,9,11-pentaen-6-yl]-2-oxoethyl}sulfanyl)propanoic acid and (2R)-2-({2-[(1R)-12-acetyl-3,5,11-trihydroxy-1,4-dimethyl-13-oxo-8-oxatricyclo [7.4.0.0^2,7]trideca-2(7),3,5,9,11-pentaen-6-yl]-2-oxoethyl}sulfanyl)propanoic acid (1:1)]
CC50 at 72 h [1]: > 1000 µM | CC50 at 4 days (in vitro): 176 ± 22.6 µM | antiviral activity (in words) [2]: low activity | IC50 [2]: 76.5 ± 8.2 µM | melting point: 91 to 95 °C | inhibition at 25 µM [3]: 41%

COc1ccc(-c2cc(=O)c3c(O)c(O)c(O)cc3o2)cc1 [4′-O-methylscutellarein]
activity against the main protease (in words) [4]: submicromolar

CCOC(=O)c1c(CSc2ccccc2)n(C)c2cc(Br)c(O)c(CN(C)C)c12 [Arbidol, reference compound]
CC50 at 72 h [1, 8]: 19.8 ± 4.6 µM | IC50 [3, 9]: 12.6 ± 4.1 µM | inhibition at 25 µM [3]: 58%

CC(=O)C1=C(O)C=C2Oc3c(C(C)=O)c(O)c(C)c(O)c3[C@@]2(C)C1=O [Compound 1, (R)-(+)-Usnic acid]
CC50 at 72 h [1, 8]: > 1000 µM | CC50 (in vitro): 147 ± 22.1 µM | IC50 [2]: 10.9 ± 2.2 µM | IC50 [5]: 3.7 ± 0.8 µM | inhibition of the main protease (in words) [6]: not an inhibitor | IC50 [7]: 20.9 ± 3.4 µM | activity against the pseudovirus system (in words) [3]: is not an entry inhibitor | inhibition at 25 µM [3]: 12%

CC(=O)c1c(O)c(C)c(O)c2c1OC1=Cc3onc(C)c3C(=O)[C@@]12C [Compound 2]
CC50 at 72 h [1]: > 1000 µM | CC50 at 4 days (in vitro): 252 ± 31 µM | antiviral activity (in words) [2]: did not exhibit antiviral activity at all | In Vitro (Pseudotype-Based Assay) [3]: yes | IC50 [3, 9]: 30 ± 2.9 µM | inhibition at 25 µM [3]: 55%

CC(=O)c1c(O)c(C)c(O)c2c1OC1=CC(=O)c3c(C)noc3[C@@]12C [Compound 3]
CC50 at 72 h [1]: 150 ± 18.5 µM | CC50 at 4 days (in vitro): 15.5 ± 2.8 µM | IC50 [2]: 9.2 ± 2.4 µM | IC50 [5]: 3.5 ± 1.1 µM | IC50 [7]: 9.1 ± 1.8 µM | IC50 [3, 9]: 32 ± 5.1 µM | inhibition at 25 µM [3]: 65%

CC(=O)C1=C(O)C=C2Oc3c(C(=O)CSCCC(=O)O)c(O)c(C)c(O)c3[C@@]2(C)C1=O [Compound 5a]
CC50 at 72 h [1]: > 1000 µM | CC50 at 4 days (in vitro): 177 ± 18.2 µM | antiviral activity (in words) [2]: no antiviral activity at all | activity against the pseudovirus system (in words) [3]: no activity | inhibition at 25 µM [3]: 0%

CC(=O)C1=C(O)C=C2Oc3c(C(C)=O)c(O)c(C)c(O)c3[C@@]2(C)[C@@H]1O [Compound 6]
CC50 at 72 h [1, 8]: 168 ± 21.2 µM | CC50 (in vitro): 99 ± 12.1 µM | IC50 [2]: 65.3 ± 7.4 µM | IC50 [6]: 112 µM | inhibition at 25 µM [3]: 40%

CC(=O)c1c(O)c(C)c(O)c2c1OC1=CC(=O)/C(=C(/C)N)C(=O)[C@@]12C [Compound 7]
CC50 at 72 h [1]: 850 ± 22.6 µM | CC50 at 4 days (in vitro): 528 ± 16 µM | antiviral activity (in words) [2]: has no antiviral activity at all | IC50 [6]: ~200 µM | inhibition at 25 µM [3]: 12%

CC(=O)C1=C(O)C=C2Oc3c4c(c(C)c(O)c3[C@@]2(C)C1=O)OCC4=O [Compound 8]
CC50 at 72 h [1]: 358 ± 31.1 µM | CC50 at 4 days (in vitro): 176 ± 19.9 µM | IC50 [2]: 44.3 ± 5.2 µM | IC50 [5]: 47 ± 6.5 µM | IC50 [6]: ~200 µM | antiviral activity (in words) [7]: almost no activity | IC50 [7]: 95 ± 8.7 µM | activity against the pseudovirus system (in words) [3]: no activity | inhibition at 25 µM [3]: 0%

CC(=O)C1=C(O)C=C2Oc3c(C(=O)CO)c(O)c(C)c(O)c3[C@@]2(C)C1=O [Compound 10, (2R)-4-acetyl-5,11,13-trihydroxy-10-(2-hydroxyacetyl)-2,12-dimethyl-8-oxatricyclo[7.4.0.0^2,7]trideca-1(9),4,6,10,12-pentaen-3-one]
CC50 at 72 h [1]: 750 ± 36.6 µM | CC50 at 4 days (in vitro): 306 ± 28.6 µM | IC50 [2]: 25.3 ± 2.1 µM | IC50 [5]: 17.5 ± 3.8 µM | IC50 [6]: ~200 µM | IC50 [7]: 9.7 ± 1.4 µM | melting point: 107 to 110 °C | inhibition at 25 µM [3]: 45%

CC(=O)C1=C(O)C[C@H]2Oc3c(C(C)=O)c(O)c(C)c(O)c3[C@@]2(C)C1=O [Compound 11, (2R,7R)-4,10-diacetyl-5,11,13-trihydroxy-2,12-dimethyl-8-oxatricyclo [7.4.0.0^2,7]trideca-1(9),4,10,12-tetraen-3-one]
CC50 at 72 h [1]: 469 ± 24.2 µM | CC50 at 4 days (in vitro): 84.9 ± 12.1 µM | IC50 [2]: 21 ± 3.5 µM | IC50 [3, 9]: 22 ± 3.2 µM | inhibition at 25 µM [3]: 78%

CCC1=C(O)C[C@H]2Oc3c(C(C)=O)c(O)c(C)c(O)c3[C@@]2(C)C1=O [Compound 12, (2R,7R)-10-acetyl-4-ethyl-5,11,13-trihydroxy-2,12-dimethyl-8-oxatricyclo[7.4.0.0^2,7]trideca-1(13),4,9,11-tetraen-3-one]
CC50 at 72 h [1]: > 1000 µM | CC50 at 4 days (in vitro): 262 ± 32 µM | IC50 [2]: 91 ± 7.1 µM | IC50 [5]: 60 ± 12.1 µM | IC50 [7]: 85 ± 11.2 µM | melting point: 58 to 62 °C | IC50 [3, 9]: 28 ± 3.7 µM | inhibition at 25 µM [3]: 53%

CC(=O)c1c(O)c(C)c(O)c2c1O[C@@H]1CC/C(=C(/C)O)C(=O)[C@]21C [Compound 13, (2R,4E,7R)-10-acetyl-11,13-dihydroxy-4-(1-hydroxyethylidene)-2,12-dimethyl-8-oxatricyclo [7.4.0.0^2,7] trideca-1(13),9,11-trien-3-one]
CC50 at 72 h [1]: 151 ± 14.9 µM | CC50 at 4 days (in vitro): 72.7 ± 14.6 µM | IC50 [2]: 6.7 ± 1.4 µM | IC50 [5]: 6.6 ± 1.9 µM | IC50 [7]: 13.5 ± 2.1 µM | melting point: 100 to 103 °C | IC50 [3]: 5.28 ± 0.8 µM | IC50 [3, 9]: 5.3 µM | inhibition at 25 µM [3]: 95%

CC(=O)c1c(O)c(C)c(O)c2c1O[C@@H]1Cc3onc(C)c3C(=O)[C@]21C [Compound 14, (1R,9R)-6-acetyl-3,5-dihydroxy-1,4,14-trimethyl-8,12-dioxa-13-azatetracyclo[7.7.0.0^2,7.0^11,^1⁵]hexadeca-2(7),3,5,11(15),13-pentaen-16-one]
CC50 at 72 h [1]: > 1000 µM | CC50 at 4 days (in vitro): 296 ± 11.9 µM | antiviral activity (in words) [2]: does not exhibit antiviral properties | melting point: 152 to 156 °C | inhibition at 25 µM [3]: 15%

O=C1c2c(O)cc(O)cc2O[C@H](c2cc(O)c(O)c(O)c2)[C@H]1O [Dihydromyricetin]
active against 3CLPro at a dose of [4]: 1.2 to 5.8 µM

O=c1c(O)c(-c2cc(O)c(O)c(O)c2)oc2cc(O)cc(O)c12 [Myricetin]
active against 3CLPro at a dose of [4]: 1.2 to 5.8 µM

O=c1c(O)c(-c2ccc(O)c(O)c2)oc2cc(O)c(O)c(O)c12 [Quercetagetin]
active against 3CLPro at a dose of [4]: 1.2 to 5.8 µM

CCC(CC)COC(=O)[C@H](C)N[P@](=O)(OC[C@H]1O[C@@](C#N)(c2ccc3c(N)ncnn23)[C@H](O)[C@@H]1O)Oc1ccccc1 [Remdesivir, reference compound]
CC50 (in vitro): 711 ± 21.2 µM | IC50 [2]: 3.8 ± 0.42 µM | IC50 [5]: 2 ± 0.13 µM | IC50 [7]: 2.1 ± 0.16 µM

O=c1cc(-c2ccc(O)cc2)oc2cc(O)c(O)c(O)c12 [Scutellarein]
active against 3CLPro at a dose of [4]: 1.2 to 5.8 µM

Reference: article PMC9611092 (Viruses, 2022)
